Legend:
Test in all cases: Ambit KinomeScan screening
Assay type in all cases: binding
Conditions in all cases: CAL-130 10 μM
AAK1 = molecular target: T1, AAK1 (Homo sapiens, UniProt Q2M2I8)
T1 construct: unspecified tag ("tagged kinases"); purchased Ambit (KinomeScan screening)
Experimental: (§1) CAL-130 (10 μM) was evaluated for its ability to prevent tagged kinases from interacting with immobilized “bait” ligand (Karaman et al., 2008). Results are reported as “% of control binding”, where lower numbers indicate stronger interactions with the tagged kinase. Values of >35% are considered “no hits”. PI3Kδ had the lowest percentage of control binding at 0.2% followed by PI3Kγ at 3.2% (See Table 1 below). These values indicate a high probability of a potent interaction. 353 kinases were assessed in the screen (Table 2).

ABL1(M351T) = molecular target: T2, ABL1(M351T) (Homo sapiens, UniProt P00519, M351T)
T2 construct: unspecified tag ("tagged kinases"); purchased Ambit (KinomeScan screening)
Experimental: as §1

AMPK-α2 = molecular target: T3, AMPK-α2 (Homo sapiens, UniProt P54646)
T3 construct: purchased Ambit (KinomeScan screening)
Experimental: as §1

ARK5 = molecular target: T4, ARK5 (Homo sapiens, UniProt O60285)
T4 construct: purchased Ambit (KinomeScan screening service)
Experimental: as §1

ASK1 = molecular target: T5, ASK1 (Homo sapiens, UniProt Q99683)
T5 construct: purchased Ambit (KinomeScan screening service)
Experimental: as §1

BRAF(V600E) = molecular target: T6, BRAF(V600E) (Homo sapiens, UniProt P15056, V600E)
T6 construct: unspecified tag ("tagged kinases"); purchased Ambit (KinomeScan screening)
Experimental: as §1

CIT = molecular target: T7, CIT (Homo sapiens, UniProt O14578)
T7 construct: purchased Ambit (KinomeScan screening service)
Experimental: as §1

CSNK1D = molecular target: T8, CSNK1D (Homo sapiens, UniProt P48730)
T8 construct: purchased Ambit (KinomeScan screening service)
Experimental: as §1

DAPK3 = molecular target: T9, DAPK3 (Homo sapiens, UniProt O43293)
T9 construct: unspecified tag ("tagged kinases"); purchased Ambit (KinomeScan screening service)
Experimental: as §1

DCAMKL1 = molecular target: T10, DCAMKL1 (Homo sapiens, UniProt O15075)
T10 construct: unspecified tag ("tagged kinases"); purchased Ambit (KinomeScan screening service)
Experimental: as §1

DCAMKL3 = molecular target: T11, DCAMKL3 (Homo sapiens, UniProt Q9C098)
T11 construct: unspecified tag ("tagged kinases"); purchased Ambit (KinomeScan screening service)
Experimental: as §1

DMPK = molecular target: T12, DMPK (Homo sapiens, UniProt Q09013)
T12 construct: unspecified tag ("tagged kinases"); purchased Ambit (KinomeScan screening service)
Experimental: as §1

EPHA2 = molecular target: T13, EPHA2 (Homo sapiens, UniProt P29317)
T13 construct: purchased Ambit (KinomeScan screening service)
Experimental: as §1

ERBB3 = molecular target: T14, ERBB3 (Homo sapiens, UniProt P21860)
T14 construct: unspecified tag ("tagged kinases"); purchased Ambit (KinomeScan screening service)
Experimental: as §1

GCN2(S808G) = molecular target: T15, GCN2(S808G) (Homo sapiens, UniProt Q9P2K8, S808G)
T15 construct: unspecified tag ('tagged kinases'); purchased Ambit (KinomeScan screening service)
Experimental: as §1

IKK-β = molecular target: T16, IKK-β (Homo sapiens, UniProt O14920)
T16 construct: Ambit (KinomeScan screening)
Experimental: as §1

IKK-[…] = molecular target: T17, IKK-[…] (Homo sapiens, UniProt Q14164)
T17 construct: Ambit (KinomeScan screening)
T17 sequence (Q14164 whole entry): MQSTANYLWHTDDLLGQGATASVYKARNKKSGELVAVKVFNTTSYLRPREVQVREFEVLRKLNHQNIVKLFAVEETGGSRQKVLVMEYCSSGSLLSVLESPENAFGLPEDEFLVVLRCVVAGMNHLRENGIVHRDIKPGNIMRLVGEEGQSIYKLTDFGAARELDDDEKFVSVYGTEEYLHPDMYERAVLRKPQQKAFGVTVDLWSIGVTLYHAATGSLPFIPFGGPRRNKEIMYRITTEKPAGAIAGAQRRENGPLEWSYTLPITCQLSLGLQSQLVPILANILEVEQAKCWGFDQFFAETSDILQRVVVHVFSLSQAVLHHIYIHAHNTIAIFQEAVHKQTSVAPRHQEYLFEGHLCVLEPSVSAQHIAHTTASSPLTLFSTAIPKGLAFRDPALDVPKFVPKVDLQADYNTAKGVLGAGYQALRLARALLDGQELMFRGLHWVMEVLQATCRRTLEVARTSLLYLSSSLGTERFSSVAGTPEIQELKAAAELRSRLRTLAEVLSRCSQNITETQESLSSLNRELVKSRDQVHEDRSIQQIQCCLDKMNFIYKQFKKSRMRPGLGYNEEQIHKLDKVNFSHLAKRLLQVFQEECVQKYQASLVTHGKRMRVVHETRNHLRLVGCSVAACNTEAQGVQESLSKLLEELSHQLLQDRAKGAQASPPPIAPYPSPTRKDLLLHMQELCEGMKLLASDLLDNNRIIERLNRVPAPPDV
Experimental: as §1

KIT(L576P) = molecular target: T18, KIT(L576P) (Homo sapiens, UniProt P10721, L576P)
T18 construct: purchased Ambit (KinomeScan screening)
Experimental: as §1

MET(M1250T) = molecular target: T19, MET(M1250T) (Homo sapiens, UniProt P08581, M1250T)
T19 construct: purchased Ambit (KinomeScan screening)
Experimental: as §1

MST1R = molecular target: T20, MST1R (Homo sapiens, UniProt Q04912)
T20 construct: unspecified tag ('tagged kinases'); purchased Ambit (KinomeScan screening)
Experimental: as §1

NEK9 = molecular target: T21, NEK9 (Homo sapiens, UniProt Q8TD19)
T21 construct: purchased Ambit (KinomeScan screening service)
Experimental: as §1

PDGFRB = molecular target: T22, PDGFRB (Homo sapiens, UniProt P09619)
T22 construct: unspecified tag ('tagged kinases'); purchased Ambit (KinomeScan screening)
Experimental: as §1

PIK3CB = molecular target: T23, PIK3CB (Homo sapiens, UniProt P42338)
T23 construct: unspecified tag; purchased Ambit (KinomeScan screening panel)
T23 sequence (P42338 whole entry): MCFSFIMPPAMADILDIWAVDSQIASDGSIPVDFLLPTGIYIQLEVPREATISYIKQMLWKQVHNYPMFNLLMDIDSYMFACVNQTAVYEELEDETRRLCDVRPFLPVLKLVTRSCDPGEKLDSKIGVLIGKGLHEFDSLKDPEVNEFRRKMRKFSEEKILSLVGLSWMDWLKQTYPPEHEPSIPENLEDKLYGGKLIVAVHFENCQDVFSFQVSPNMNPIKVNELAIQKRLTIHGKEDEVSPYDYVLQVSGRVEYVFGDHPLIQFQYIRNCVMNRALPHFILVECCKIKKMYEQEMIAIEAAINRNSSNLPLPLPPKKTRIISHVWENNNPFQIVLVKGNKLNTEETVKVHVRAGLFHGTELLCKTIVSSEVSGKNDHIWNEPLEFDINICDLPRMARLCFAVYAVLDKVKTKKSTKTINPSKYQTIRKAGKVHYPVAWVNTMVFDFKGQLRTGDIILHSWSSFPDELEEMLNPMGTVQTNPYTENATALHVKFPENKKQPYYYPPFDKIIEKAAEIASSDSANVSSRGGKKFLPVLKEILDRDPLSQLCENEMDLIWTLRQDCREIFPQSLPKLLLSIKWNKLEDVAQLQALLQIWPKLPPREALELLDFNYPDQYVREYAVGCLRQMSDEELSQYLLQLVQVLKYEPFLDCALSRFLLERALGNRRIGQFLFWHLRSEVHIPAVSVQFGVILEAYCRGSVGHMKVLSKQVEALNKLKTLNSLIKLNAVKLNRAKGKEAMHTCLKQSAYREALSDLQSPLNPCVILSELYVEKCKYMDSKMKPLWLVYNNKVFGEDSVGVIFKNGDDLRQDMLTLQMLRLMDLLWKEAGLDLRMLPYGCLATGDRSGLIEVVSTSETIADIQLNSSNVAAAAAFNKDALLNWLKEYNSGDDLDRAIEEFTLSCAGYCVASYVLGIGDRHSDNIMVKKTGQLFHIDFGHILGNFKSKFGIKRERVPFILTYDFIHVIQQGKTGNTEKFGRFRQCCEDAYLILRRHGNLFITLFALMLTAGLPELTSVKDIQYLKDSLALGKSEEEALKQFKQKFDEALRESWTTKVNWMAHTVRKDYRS
Experimental: as §1

PIK3CG = molecular target: T24, PIK3CG (Homo sapiens, UniProt P48736)
T24 construct: unspecified tag; purchased Ambit (KinomeScan screening panel)
T24 sequence (P48736 whole entry): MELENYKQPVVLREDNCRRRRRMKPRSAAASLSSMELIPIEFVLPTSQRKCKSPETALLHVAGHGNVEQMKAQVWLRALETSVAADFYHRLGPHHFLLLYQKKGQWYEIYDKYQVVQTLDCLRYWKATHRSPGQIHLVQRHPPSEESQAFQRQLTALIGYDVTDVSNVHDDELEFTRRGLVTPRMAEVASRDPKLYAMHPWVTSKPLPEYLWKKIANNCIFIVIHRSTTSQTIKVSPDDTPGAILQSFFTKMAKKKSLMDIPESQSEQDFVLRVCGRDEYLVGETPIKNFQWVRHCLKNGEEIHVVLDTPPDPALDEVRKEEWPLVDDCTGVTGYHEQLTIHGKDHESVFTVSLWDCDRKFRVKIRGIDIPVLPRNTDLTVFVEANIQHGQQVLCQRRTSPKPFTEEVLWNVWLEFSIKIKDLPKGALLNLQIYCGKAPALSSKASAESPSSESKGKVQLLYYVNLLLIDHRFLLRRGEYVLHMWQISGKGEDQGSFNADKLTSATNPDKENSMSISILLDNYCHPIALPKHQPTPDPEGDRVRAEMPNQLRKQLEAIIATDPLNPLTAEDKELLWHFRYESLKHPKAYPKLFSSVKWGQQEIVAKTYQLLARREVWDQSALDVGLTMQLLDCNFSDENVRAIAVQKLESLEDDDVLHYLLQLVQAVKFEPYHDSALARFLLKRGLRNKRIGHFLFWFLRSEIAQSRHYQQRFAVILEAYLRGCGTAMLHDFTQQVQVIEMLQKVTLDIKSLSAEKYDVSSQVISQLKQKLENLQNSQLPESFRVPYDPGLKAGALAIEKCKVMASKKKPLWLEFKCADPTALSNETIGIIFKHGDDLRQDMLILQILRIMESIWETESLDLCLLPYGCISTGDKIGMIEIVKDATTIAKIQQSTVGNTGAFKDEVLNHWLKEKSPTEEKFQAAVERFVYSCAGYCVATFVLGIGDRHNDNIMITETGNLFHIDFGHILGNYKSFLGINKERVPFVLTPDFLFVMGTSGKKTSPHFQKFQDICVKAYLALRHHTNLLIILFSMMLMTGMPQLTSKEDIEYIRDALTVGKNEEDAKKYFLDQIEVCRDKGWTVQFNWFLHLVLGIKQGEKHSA
Experimental: as §1

PIM3 = molecular target: T25, PIM3 (Homo sapiens, UniProt Q86V86)
T25 construct: unspecified tag; purchased Ambit (KinomeScan screening panel)
Experimental: as §1

RET(M918T) = molecular target: T26, RET(M918T) (Homo sapiens, UniProt P07949, M918T)
T26 construct: tag (kind not specified); purchased Ambit (KinomeScan screening service)
Experimental: as §1

ROCK1 = molecular target: T27, ROCK1 (Homo sapiens, UniProt Q13464)
T27 construct: unspecified tag (tagged kinase); purchased Ambit (KinomeScan screening)
Experimental: as §1

RPS6KA2 = molecular target: T28, RPS6KA2 (Homo sapiens, UniProt Q15349)
T28 construct: unspecified tag (tagged kinase); purchased Ambit (KinomeScan screening)
T28 sequence (Q15349 whole entry): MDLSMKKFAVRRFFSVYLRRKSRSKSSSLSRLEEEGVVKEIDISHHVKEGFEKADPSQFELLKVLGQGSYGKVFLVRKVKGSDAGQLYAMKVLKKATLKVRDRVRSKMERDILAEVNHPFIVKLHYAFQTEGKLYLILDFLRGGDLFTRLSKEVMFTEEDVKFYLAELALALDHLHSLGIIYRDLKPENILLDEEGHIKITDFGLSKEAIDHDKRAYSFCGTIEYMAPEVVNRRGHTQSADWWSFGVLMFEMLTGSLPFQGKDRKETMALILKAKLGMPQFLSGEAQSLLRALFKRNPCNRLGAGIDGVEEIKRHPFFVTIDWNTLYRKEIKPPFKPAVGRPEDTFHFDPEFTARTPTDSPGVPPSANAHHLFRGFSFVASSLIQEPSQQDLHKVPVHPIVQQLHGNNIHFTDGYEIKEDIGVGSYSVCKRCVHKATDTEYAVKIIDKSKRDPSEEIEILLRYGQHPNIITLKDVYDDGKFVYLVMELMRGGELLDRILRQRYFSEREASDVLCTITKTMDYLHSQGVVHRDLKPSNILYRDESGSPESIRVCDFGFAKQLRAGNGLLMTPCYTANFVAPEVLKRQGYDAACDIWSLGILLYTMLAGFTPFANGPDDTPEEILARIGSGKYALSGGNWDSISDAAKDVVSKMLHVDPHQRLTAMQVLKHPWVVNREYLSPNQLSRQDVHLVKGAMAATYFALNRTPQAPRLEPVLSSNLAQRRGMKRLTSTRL
Experimental: as §1

RPS6KA6 = molecular target: T29, RPS6KA6 (Homo sapiens, UniProt Q9UK32)
T29 construct: tag, kind not specified; purchased Ambit (KinomeScan screening service)
Experimental: as §1

SRPK1 = molecular target: T30, SRPK1 (Homo sapiens, UniProt Q96SB4)
T30 construct: tag, kind not specified; purchased Ambit (KinomeScan screening service)
Experimental: as §1

STK16 = molecular target: T31, STK16 (Homo sapiens, UniProt O75716)
T31 construct: purchased Ambit (KinomeScan screening service)
Experimental: as §1

SgK085 = molecular target: T32, SgK085 (Homo sapiens, UniProt Q86YV6)
T32 construct: tag, kind not specified; purchased Ambit (KinomeScan screening service)
Experimental: as §1

TNNI3K = molecular target: T33, TNNI3K (Homo sapiens, UniProt Q59H18)
T33 construct: unspecified tag (tagged kinase); purchased Ambit (KinomeScan screening)
T33 sequence (Q59H18 whole entry): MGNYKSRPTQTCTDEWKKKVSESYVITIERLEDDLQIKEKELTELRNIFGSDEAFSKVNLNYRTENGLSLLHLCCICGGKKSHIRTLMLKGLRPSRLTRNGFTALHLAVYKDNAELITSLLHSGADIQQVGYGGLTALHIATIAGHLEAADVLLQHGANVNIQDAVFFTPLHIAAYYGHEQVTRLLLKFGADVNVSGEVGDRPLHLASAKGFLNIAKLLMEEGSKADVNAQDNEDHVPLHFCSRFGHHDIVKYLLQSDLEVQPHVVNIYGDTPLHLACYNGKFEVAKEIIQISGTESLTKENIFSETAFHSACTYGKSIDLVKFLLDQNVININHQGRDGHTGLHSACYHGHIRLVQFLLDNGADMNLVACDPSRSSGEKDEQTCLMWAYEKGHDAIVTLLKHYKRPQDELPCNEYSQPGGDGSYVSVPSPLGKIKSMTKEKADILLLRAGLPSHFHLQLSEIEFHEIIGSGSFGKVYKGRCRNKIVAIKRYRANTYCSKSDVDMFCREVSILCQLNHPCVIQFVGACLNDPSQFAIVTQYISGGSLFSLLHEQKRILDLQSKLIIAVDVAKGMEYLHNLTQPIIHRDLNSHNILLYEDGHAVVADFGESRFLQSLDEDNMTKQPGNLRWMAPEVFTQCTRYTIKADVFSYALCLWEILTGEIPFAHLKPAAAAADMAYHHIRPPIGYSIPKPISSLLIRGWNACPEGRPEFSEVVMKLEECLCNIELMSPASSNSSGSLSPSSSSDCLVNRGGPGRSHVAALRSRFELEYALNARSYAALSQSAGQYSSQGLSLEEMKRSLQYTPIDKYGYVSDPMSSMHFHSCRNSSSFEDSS
Experimental: as §1

TRKB = molecular target: T34, TRKB (Homo sapiens, UniProt Q16620)
T34 construct: tag, kind not specified; purchased Ambit (KinomeScan screening service)
Experimental: as §1

YSK1 = molecular target: T35, YSK1 (Homo sapiens, UniProt O00506)
T35 construct: purchased Ambit (KinomeScan screening service)
Experimental: as §1

In the case of Cc1ccccc1-n1c(C(C)Nc2nc(N)nc3nc[nH]c23)nc2cccc(C)c2c1=O (stereo not shown) [CAL-130], the “Percent of Control Binding” value (AAK1) is reported as 100%, the “Percent of Control Binding” value (ABL1(M351T)) is reported as 100% and the “Percent of Control Binding” value (AMPK-α2) is reported as 100%. The “Percent of Control Binding” value (ARK5) was 100%, the “Percent of Control Binding” value (ASK1) was 100% and the “Percent of Control Binding” value (BRAF(V600E)) was 100%. For the same compound, the “Percent of Control Binding” value (CIT) was 100%, the “Percent of Control Binding” value (CSNK1D) was 100% and the “Percent of Control Binding” value (DAPK3) was 100%. The “Percent of Control Binding” value (DCAMKL1) was 100%, the “Percent of Control Binding” value (DCAMKL3) was 100% and the “Percent of Control Binding” value (DMPK) was 100%. The “Percent of Control Binding” value (EPHA2) was 100%, the “Percent of Control Binding” value (ERBB3) was 100% and the “Percent of Control Binding” value (GCN2(S808G)) was 100%. The “Percent of Control Binding” value (IKK-β) was 100%, the “Percent of Control Binding” value (IKK-[…]) was 100% and the “Percent of Control Binding” value (KIT(L576P)) was 100%. For the same compound, the “Percent of Control Binding” value (MET(M1250T)) was 100%, the “Percent of Control Binding” value (MST1R) was 100% and the “Percent of Control Binding” value (NEK9) was 100%. The “Percent of Control Binding” value (PDGFRB) was 100%, the “Percent of Control Binding” value (PIK3CB; PI3KCB (Table 2)) was 10% and the “Percent of Control Binding” value (PIK3CB; PIK3CB (Table 1)) was 3.2%. The “Percent of Control Binding” value (PIK3CG; PI3KCG (Table 2)) was 1.2%, the “Percent of Control Binding” value (PIK3CG; PIK3CG / PI3Kγ (Table 1)) was 10% and the “Percent of Control Binding” value (PIM3) was 100%. The “Percent of Control Binding” value (RET(M918T)) was 100%, the “Percent of Control Binding” value (ROCK1) was 100% and the “Percent of Control Binding” value (RPS6KA2) was 100%. The “Percent of Control Binding” value (RPS6KA6) was 100%, the “Percent of Control Binding” value (SRPK1) was 100% and the “Percent of Control Binding” value (STK16) was 100%. For the same compound, the “Percent of Control Binding” value (SgK085) was 100%, the “Percent of Control Binding” value (TNNI3K) was 100% and the “Percent of Control Binding” value (TRKB) was 100%. For the same compound, the “Percent of Control Binding” value (YSK1) was 100%.

Reference: patent publication US11969428B2, “Methods and pharmaceutical compositions for treating lymphoid malignancy” (priority 2011, dated 2024)
